Assay results reported in ChEMBL document CHEMBL4000195, “Design and synthesis of novel 7-aminosubstituted pyrido[2,3-b]pyrazines exhibiting anti-breast cancer activity” (Eur J Med Chem, 2017).
Active and inactive are the calls of the source. The calls are words filed in the database; no cut-off is given here.

What was measured:
[1] = system: MDA-MB-231; assay: Cytotoxicity against human MDA-MB-231 cells at 10 uM by MTT assay; assay type: functional
[2] = system: MDA-MB-231; assay: Cytotoxicity against human MDA-MB-231 cells by MTT assay; assay type: functional, cell-based
[3] = system: MCF7; assay: Cytotoxicity against human MCF7 cells at 5 uM by MTT assay; assay type: functional
[4] = AUC (0 to 8 hrs) in NOD/SCID mouse at 0.5 mg/kg, po administered as single dose by LC-MS/MS method; assay type: ADME, organism-based; design: time < 8 hr, dose 0.5 mg/kg, route oral; details: in vivo
[5] = system: HCC1954; assay: Cytotoxicity against human HCC1954 cells at 5 uM by MTT assay; assay type: functional
[6] = AUC (0 to 8 hrs) in NOD/SCID mouse at 0.5 mg/kg, ip administered as single dose by LC-MS/MS method; assay type: ADME, organism-based; design: dose 0.5 mg/kg, time < 8 hr, route intraperitoneal; details: in vivo
[7] = target: Receptor-interacting serine/threonine-protein kinase 3 (Homo sapiens) (UniProt Q9Y572); assay: Inhibition of human RIPK3
Receptor-interacting serine/threonine-protein kinase 3 (Homo sapiens), sequence (Q9Y572 whole entry, looked up): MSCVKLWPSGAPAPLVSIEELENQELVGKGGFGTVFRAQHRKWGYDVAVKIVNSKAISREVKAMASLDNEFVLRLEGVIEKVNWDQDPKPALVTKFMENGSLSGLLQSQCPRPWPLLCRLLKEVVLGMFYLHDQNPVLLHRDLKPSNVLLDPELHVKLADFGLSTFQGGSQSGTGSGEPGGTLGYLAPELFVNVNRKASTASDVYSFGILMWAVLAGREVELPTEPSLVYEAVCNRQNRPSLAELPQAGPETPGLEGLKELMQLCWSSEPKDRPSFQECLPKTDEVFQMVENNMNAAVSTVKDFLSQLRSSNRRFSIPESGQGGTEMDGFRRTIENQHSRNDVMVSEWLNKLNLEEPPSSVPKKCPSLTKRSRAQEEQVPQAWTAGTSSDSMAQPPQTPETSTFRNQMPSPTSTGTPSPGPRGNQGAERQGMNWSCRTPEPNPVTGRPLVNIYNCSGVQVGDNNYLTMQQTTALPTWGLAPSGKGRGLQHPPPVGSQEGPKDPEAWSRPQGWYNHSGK

[8] = system: Mus musculus; assay: Toxicity in NOD/SCID mouse assessed as phenotypic changes at 0.5 mg/kg, po administered as single dose; assay type: organism-based; details: in vivo
[9] = system: T47D; assay: Cytotoxicity against human T47D cells at 10 uM by MTT assay; assay type: functional
[10] = system: Mus musculus; assay: Toxicity in NOD/SCID mouse assessed as phenotypic changes at 0.5 mg/kg, ip administered as single dose; assay type: organism-based; details: in vivo
[11] = target: Cyclin-dependent kinase 5/CDK5 activator 1 (Homo sapiens) (UniProt Q00535+Q15078); assay: Inhibition of human CDK5/p25 using histone H1 as substrate in presence of [gamma33P]ATP after 30 mins by scintillation counting method; assay type: protein-complex assay
Cyclin-dependent kinase 5/CDK5 activator 1 (Homo sapiens), sequence (Q00535 whole entry): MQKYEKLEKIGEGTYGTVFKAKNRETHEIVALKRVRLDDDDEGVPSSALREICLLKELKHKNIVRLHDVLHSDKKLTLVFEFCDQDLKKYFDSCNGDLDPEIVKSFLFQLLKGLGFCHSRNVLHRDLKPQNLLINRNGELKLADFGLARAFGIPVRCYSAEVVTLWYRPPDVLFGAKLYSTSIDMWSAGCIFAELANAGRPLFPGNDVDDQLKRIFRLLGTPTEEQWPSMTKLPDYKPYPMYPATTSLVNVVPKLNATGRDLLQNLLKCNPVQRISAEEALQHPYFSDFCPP
Cyclin-dependent kinase 5/CDK5 activator 1 (Homo sapiens), sequence (Q15078 99-307 partner limits assumed): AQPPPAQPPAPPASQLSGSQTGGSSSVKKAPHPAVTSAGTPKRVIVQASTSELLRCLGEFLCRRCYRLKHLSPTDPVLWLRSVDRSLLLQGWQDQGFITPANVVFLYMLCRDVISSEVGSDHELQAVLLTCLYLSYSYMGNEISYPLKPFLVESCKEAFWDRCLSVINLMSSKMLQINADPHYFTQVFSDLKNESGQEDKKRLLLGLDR

[12] = target: Platelet-derived growth factor receptor beta (Homo sapiens) (UniProt P09619); assay: Inhibition of recombinant human GST-tagged PDGFR-beta (557-end residues) transphosphorylation activity expressed in baculovirus infected Sf9 cells using poly[Glu:Tyr] (4:1) as substrate after 60 mins
Platelet-derived growth factor receptor beta (Homo sapiens), sequence (P09619 whole entry): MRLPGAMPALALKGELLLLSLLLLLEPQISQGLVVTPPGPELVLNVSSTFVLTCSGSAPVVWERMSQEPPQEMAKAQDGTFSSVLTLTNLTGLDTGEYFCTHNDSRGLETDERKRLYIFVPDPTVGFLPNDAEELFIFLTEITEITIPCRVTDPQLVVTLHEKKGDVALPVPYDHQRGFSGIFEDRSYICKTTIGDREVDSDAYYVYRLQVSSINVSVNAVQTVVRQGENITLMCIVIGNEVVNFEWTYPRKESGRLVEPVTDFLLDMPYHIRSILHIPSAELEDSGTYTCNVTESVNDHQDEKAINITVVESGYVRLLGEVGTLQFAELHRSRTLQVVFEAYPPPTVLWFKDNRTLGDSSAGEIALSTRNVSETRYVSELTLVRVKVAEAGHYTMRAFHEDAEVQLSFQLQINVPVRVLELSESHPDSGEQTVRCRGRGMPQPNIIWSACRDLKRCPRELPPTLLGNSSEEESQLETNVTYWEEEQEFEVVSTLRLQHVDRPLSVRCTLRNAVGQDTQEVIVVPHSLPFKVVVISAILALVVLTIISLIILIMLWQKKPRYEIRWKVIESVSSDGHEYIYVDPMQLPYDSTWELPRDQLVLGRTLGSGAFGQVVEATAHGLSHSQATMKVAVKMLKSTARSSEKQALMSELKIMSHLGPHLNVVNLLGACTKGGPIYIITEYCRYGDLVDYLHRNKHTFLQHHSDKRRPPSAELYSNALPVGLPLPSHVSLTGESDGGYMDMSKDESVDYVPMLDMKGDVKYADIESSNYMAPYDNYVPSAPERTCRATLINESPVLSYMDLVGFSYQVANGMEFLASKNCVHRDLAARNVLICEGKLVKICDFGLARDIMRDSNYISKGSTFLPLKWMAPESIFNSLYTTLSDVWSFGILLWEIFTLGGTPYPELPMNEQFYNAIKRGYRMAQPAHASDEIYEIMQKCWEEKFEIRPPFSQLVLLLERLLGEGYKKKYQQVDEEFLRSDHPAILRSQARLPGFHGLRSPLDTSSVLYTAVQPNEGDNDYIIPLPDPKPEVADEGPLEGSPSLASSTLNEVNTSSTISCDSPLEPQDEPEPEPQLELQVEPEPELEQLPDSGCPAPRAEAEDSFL

[13] = system: MCF7; assay: Cytotoxicity against human MCF7 cells at 10 uM by MTT assay; assay type: functional
[14] = Cmax in NOD/SCID mouse at 0.5 mg/kg, ip administered as single dose by LC-MS/MS method; assay type: ADME, organism-based; design: dose 0.5 mg/kg, route intraperitoneal; details: in vivo
[15] = system: MCF7; assay: Cytotoxicity against human MCF7 cells by MTT assay; assay type: functional, cell-based
[16] = target: Vascular endothelial growth factor receptor 2 (Homo sapiens) (UniProt P35968); assay: Inhibition of recombinant human GST-tagged VEGFR-2 (789-end residues) transphosphorylation activity expressed in baculovirus infected Sf9 cells using poly[Glu:Tyr] (4:1) as substrate after 60 mins
[17] = system: HCC1954; assay: Cytotoxicity against human HCC1954 cells by MTT assay; assay type: functional, cell-based
[18] = target: Mast/stem cell growth factor receptor Kit (Homo sapiens) (UniProt P10721); assay: Inhibition of recombinant human GST-tagged KIT (544-end residues) transphosphorylation activity expressed in baculovirus infected Sf9 cells using poly[Glu:Tyr] (4:1) as substrate after 60 mins
[19] = system: HCC1954; assay: Cytotoxicity against human HCC1954 cells at 10 uM by MTT assay; assay type: functional
[20] = target: Dual specificity tyrosine-phosphorylation-regulated kinase 1A (Rattus norvegicus) (UniProt Q63470); assay: Inhibition of rat DYRK1A using myelin basic protein as substrate in presence of [gamma33P]ATP after 30 mins by scintillation counting method
[21] = target: Glycogen synthase kinase-3 (Sus scrofa) (UniProt B2LUN4+I6LNT8); assay: Inhibition of pig GSK3alpha/beta using GS-1 as substrate in presence of [gamma33P]ATP after 30 mins by scintillation counting method
[22] = Tmax in NOD/SCID mouse at 0.5 mg/kg, ip administered as single dose by LC-MS/MS method; assay type: ADME, organism-based; details: in vivo
[23] = system: T47D; assay: Cytotoxicity against human T47D cells by MTT assay; assay type: functional, cell-based
[24] = system: T47D; assay: Cytotoxicity against human T47D cells at 5 uM by MTT assay; assay type: functional
[25] = species on record: Sus scrofa; assay: Inhibition of pig CK1delta/epsilon
[26] = target: Receptor-type tyrosine-protein kinase FLT3 (Homo sapiens) (UniProt P36888); assay: Inhibition of recombinant human GST-tagged FLT3 (571 to 993 residues) transphosphorylation activity expressed in baculovirus infected Sf9 cells using poly[Glu:Tyr] (4:1) as substrate after 60 mins
Receptor-type tyrosine-protein kinase FLT3 (Homo sapiens), sequence (P36888 whole entry, the tested form may be a part): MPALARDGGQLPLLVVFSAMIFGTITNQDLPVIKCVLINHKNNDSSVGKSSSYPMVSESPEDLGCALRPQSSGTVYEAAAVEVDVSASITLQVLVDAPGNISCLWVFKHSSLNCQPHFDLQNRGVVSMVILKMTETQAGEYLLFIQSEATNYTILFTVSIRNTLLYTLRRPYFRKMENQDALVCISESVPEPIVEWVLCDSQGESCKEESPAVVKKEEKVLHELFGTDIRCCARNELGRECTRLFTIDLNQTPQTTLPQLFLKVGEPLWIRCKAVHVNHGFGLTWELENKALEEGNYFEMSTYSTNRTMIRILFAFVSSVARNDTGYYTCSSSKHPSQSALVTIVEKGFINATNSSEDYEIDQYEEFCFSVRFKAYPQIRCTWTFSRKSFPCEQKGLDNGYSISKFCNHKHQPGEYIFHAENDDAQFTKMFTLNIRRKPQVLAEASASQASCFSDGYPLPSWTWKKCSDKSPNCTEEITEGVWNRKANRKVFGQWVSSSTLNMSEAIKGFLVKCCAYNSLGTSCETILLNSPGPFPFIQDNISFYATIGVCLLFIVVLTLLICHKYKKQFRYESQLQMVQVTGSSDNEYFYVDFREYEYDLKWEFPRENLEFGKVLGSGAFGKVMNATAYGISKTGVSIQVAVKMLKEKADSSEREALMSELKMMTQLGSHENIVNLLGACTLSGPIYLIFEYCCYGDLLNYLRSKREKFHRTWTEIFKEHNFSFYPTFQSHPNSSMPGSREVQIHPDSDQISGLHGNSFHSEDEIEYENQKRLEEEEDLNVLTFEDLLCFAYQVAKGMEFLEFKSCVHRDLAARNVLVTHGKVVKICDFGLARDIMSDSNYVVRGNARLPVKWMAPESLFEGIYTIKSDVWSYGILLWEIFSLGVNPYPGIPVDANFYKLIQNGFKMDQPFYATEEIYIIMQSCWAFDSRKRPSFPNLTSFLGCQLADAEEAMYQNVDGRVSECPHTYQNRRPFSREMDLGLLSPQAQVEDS

[27] = target: Dual specificity protein kinase CLK1 (Mus musculus) (UniProt P22518); assay: Inhibition of mouse CLK1
Dual specificity protein kinase CLK1 (Mus musculus), sequence (P22518 whole entry, looked up): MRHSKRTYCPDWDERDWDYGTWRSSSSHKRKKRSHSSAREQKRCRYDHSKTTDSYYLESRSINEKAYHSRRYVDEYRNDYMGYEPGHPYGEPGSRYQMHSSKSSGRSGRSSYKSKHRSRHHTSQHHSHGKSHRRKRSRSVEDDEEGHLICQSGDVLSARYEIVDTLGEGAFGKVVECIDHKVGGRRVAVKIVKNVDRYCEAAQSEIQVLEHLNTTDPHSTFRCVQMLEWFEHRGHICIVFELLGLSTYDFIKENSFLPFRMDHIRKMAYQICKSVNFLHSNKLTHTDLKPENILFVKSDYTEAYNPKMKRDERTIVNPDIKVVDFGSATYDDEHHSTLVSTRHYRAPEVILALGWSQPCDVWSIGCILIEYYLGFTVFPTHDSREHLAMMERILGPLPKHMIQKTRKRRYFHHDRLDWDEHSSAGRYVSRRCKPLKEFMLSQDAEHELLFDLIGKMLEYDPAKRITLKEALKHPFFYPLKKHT

[28] = Tmax in NOD/SCID mouse at 0.5 mg/kg, po administered as single dose by LC-MS/MS method; assay type: ADME, organism-based; details: in vivo
[29] = target: Phosphatidylinositol 4,5-bisphosphate 3-kinase catalytic subunit alpha isoform (Homo sapiens, UniProt P42336); assay: Inhibition of PI3Kalpha catalytic domain (unknown origin) using PIP2 liposomes as substrate in presence of biotin-labeled PIP3 and GST-GRP1-PH by streptavidin-HRP based assays
Phosphatidylinositol 4,5-bisphosphate 3-kinase catalytic subunit alpha isoform, sequence (P42336 whole entry, the tested form may be a part, canonical isoform): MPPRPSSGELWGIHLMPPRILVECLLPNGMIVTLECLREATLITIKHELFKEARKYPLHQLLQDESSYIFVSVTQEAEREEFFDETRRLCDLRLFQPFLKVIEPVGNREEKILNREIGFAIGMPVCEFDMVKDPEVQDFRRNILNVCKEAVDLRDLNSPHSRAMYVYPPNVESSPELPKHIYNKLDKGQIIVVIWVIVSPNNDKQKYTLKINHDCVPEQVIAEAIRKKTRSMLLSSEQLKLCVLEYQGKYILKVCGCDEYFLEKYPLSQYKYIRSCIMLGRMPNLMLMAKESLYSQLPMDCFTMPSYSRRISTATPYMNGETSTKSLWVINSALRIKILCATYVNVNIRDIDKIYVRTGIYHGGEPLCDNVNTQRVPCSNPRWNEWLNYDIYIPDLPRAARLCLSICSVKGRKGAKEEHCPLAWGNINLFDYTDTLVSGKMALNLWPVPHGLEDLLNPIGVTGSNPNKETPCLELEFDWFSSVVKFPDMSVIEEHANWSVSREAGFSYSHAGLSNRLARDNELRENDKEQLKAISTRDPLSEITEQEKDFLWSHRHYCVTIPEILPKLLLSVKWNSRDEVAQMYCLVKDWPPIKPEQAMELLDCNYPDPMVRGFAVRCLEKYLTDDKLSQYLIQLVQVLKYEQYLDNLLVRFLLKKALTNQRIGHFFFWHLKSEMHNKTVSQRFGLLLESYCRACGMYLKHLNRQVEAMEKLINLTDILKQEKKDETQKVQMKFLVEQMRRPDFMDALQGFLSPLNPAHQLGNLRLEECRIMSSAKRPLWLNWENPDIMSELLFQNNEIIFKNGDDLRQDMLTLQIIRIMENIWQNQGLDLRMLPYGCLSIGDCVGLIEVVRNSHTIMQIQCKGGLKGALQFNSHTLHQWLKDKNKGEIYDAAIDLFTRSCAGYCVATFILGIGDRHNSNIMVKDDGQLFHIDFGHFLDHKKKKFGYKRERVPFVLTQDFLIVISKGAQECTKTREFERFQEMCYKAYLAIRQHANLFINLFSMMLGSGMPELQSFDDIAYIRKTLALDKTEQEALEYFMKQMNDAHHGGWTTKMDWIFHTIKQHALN

[30] = Cmax in NOD/SCID mouse at 0.5 mg/kg, po administered as single dose by LC-MS/MS method; assay type: ADME, organism-based; design: dose 0.5 mg/kg, route oral; details: in vivo
[31] = system: MDA-MB-231; assay: Cytotoxicity against human MDA-MB-231 cells at 5 uM by MTT assay; assay type: functional
[32] = system: SK-BR-3; assay: Cytotoxicity against human SKBR3 cells by MTT assay; assay type: functional, cell-based
[33] = target: T1, Serine/threonine-protein kinase haspin (Homo sapiens) (UniProt Q8TF76); assay: Inhibition of human HASPIN
T1 sequence (whole entry): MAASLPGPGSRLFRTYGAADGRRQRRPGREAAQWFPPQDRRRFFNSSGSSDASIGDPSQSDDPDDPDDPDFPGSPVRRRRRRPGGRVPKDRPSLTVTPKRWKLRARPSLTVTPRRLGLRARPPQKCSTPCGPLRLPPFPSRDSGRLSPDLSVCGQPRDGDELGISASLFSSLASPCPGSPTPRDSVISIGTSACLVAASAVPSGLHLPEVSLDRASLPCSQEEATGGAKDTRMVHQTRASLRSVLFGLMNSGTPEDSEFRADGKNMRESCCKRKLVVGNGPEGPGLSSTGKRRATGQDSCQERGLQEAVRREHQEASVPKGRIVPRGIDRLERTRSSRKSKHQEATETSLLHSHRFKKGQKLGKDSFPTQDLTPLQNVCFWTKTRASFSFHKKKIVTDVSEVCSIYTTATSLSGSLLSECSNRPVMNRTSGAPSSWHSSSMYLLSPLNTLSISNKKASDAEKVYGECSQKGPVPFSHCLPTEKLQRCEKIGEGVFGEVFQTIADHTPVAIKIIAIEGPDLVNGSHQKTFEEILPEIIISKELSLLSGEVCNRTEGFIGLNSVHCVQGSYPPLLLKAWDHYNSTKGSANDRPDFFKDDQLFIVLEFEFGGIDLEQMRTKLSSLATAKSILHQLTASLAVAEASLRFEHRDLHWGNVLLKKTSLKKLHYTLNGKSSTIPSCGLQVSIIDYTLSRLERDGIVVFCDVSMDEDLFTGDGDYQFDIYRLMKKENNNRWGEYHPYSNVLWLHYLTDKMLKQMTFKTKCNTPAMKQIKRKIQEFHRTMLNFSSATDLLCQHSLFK

[34] = target: Aurora kinase B/Inner centromere protein (Homo sapiens) (UniProt Q96GD4+Q9NQS7); assay: Inhibition of human AURKB/INCENP; assay type: protein-complex assay
[35] = system: HCC1954; assay: Anti-tumor activity against HER2-amplified human HCC1954 cells xenografted in NOD/SCID mouse assessed as tumor size at 10 mg/kg, ip administered once daily for 18 days measured after 1 hr last dose (reference value: 497 +/- 82 mm3); assay type: functional

Question: With `Cc1nc2nc(Sc3ccccc3)cnc2cc1NC(=O)c1ccccc1` as the compound, how does the Activity [1] read?
Answer: The Activity was greater than 50%.

Question: And the IC50 [2]?
Answer: Its IC50 is 4 µM.

Question: And the Activity [3]?
Answer: The Activity was greater than 50%.

Question: What about the AUC(0-t) at 8 h [4] of the same compound?
Answer: The AUC(0-t) at 8 h was 0.43 µM·h.

Question: And the Activity [5]?
Answer: The Activity was greater than 50%.

Question: What about the AUC(0-t) at 8 h [6] of the same compound?
Answer: Its AUC(0-t) at 8 h is 0.57 µM·h.

Question: And the inhibition [7]?
Answer: Its inhibition is “inactive”.

Question: What about the Activity [8] of the same compound?
Answer: The Activity was “Non-Toxic”.

Question: And the Activity [9]?
Answer: The Activity was greater than 50%.

Question: What about the Activity [10] of the same compound?
Answer: The Activity was “Non-Toxic”.

Question: And the inhibition [11]?
Answer: Its inhibition is “inactive”.

Question: What about the inhibition [12] of the same compound?
Answer: The inhibition was “inactive”.

Question: And the Activity [13]?
Answer: The Activity was greater than 50%.

Question: And the Cmax [14]?
Answer: Its Cmax is 520 nM.

Question: What about the IC50 [15] of the same compound?
Answer: The IC50 was 4 µM.

Question: What about the inhibition [16] of the same compound?
Answer: Its inhibition is “inactive”.

Question: What about the IC50 [17] of the same compound?
Answer: Its IC50 is 4.5 µM.

Question: And the inhibition [18]?
Answer: The inhibition was “inactive”.

Question: What about the Activity [19] of the same compound?
Answer: The Activity was greater than 50%.

Question: What about the inhibition [20] of the same compound?
Answer: Its inhibition is “inactive”.

Question: And the inhibition [21]?
Answer: Its inhibition is “inactive”.

Question: What about the Tmax [22] of the same compound?
Answer: Its Tmax is 30 min.

Question: What about the IC50 [23] of the same compound?
Answer: Its IC50 is 1.5 µM.

Question: And the Activity [24]?
Answer: The Activity was greater than 50%.

Question: And the inhibition [25]?
Answer: Its inhibition is “inactive”.

Question: What about the inhibition [26] of the same compound?
Answer: The inhibition was “inactive”.

Question: What about the inhibition [27] of the same compound?
Answer: Its inhibition is “inactive”.

Question: What about the Tmax [28] of the same compound?
Answer: The Tmax was 15 min.

Question: What about the inhibition [29] of the same compound?
Answer: Its inhibition is “inactive”.

Question: And the Cmax [30]?
Answer: Its Cmax is 320 nM.

Question: And the Activity [31]?
Answer: The Activity was greater than 50%.

Question: What about the IC50 [32] of the same compound?
Answer: Its IC50 is 3.7 µM.

Question: And the inhibition [33]?
Answer: Its inhibition is “inactive”.

Question: And the inhibition [34]?
Answer: The inhibition was “inactive”.

Question: Which IC50 [2] does the source give for `CS(=O)(=O)N1CCN(Cc2cc3nc(-c4cccc5[nH]ncc45)nc(N4CCOCC4)c3s2)CC1` [PICTILISIB] here?
Answer: Its IC50 is greater than 30 µM.

Question: What about the IC50 [15] of the same compound?
Answer: The IC50 was 2 µM.

Question: What about the IC50 [17] of the same compound?
Answer: The IC50 was 1.3 µM.

Question: And the Activity [35]?
Answer: The Activity was 350 mm3.

Question: And the IC50 [23]?
Answer: The IC50 was 1.2 µM.

Question: What about the IC50 [32] of the same compound?
Answer: The IC50 was 0.9 µM.
